Reference: the supplement of paper PMC10307832

Columns and labels:
Assay in all cases: relative viability (nuclei count vs DMSO), 5 days (fraction); higher = more cells survive
[1] = compound: CS(=O)(=O)c1ccc(C(=O)Nc2ccc(Cl)c(-c3ccccn3)c2)c(Cl)c1 [Vismodegib] + CC(=O)Nc1cccc(-n2c(=O)n(C3CC3)c(=O)c3c(Nc4ccc(I)cc4F)n(C)c(=O)c(C)c32)c1 [Trametinib] (partner 0.02 µM)
Summary of the method: (§1)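 For relative viability, nuclei counts in treated wells were divided by those in vehicle wells. Lung cancer cell lines had been pin-tool dosed in 1536-well plates the day after seeding and cultured for 5 days, then fixed and stained in one step (final 0.05% Triton X-100, 1% formaldehyde, 1 ug/ml Hoechst) and imaged at 4×. Doses were one drug alone or a fixed anchor-drug dose plus five library-drug doses (not always all listed) in √10 steps, and values are duplicate-plate medians.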

[2] = compound: CS(=O)(=O)c1ccc(C(=O)Nc2ccc(Cl)c(-c3ccccn3)c2)c(Cl)c1 [Vismodegib] + Nc1nc2[nH]cc(CCc3ccc(C(=O)N[C@@H](CCC(=O)O)C(=O)O)cc3)c2c(=O)[nH]1 [Pemetrexed] (partner 0.2 µM)
Summary of the method: as §1

[3] = compound: CS(=O)(=O)c1ccc(-c2cnc(N)c(C(=O)Nc3ccccc3)n2)cc1 [VE-821] + Cc1cc(Nc2cc(N3CCN(C)CC3)nc(Sc3ccc(NC(=O)C4CC4)cc3)n2)n[nH]1 [Tozasertib] (partner 0.1 µM)
Summary of the method: as §1

[4] = compound: N#CC[C@H](C1CCCC1)n1cc(-c2ncnc3[nH]ccc23)cn1 [Ruxolitinib] + Cc1nc(Nc2ncc(C(=O)Nc3c(C)cccc3Cl)s2)cc(N2CCN(CCO)CC2)n1 [Dasatinib] (partner 0.075 µM)
Summary of the method: as §1

Cell Line | relative viability ([1]; first compound 0.08 µM) | relative viability ([1]; first compound 0.253 µM) | relative viability ([1]; first compound 0.8 µM) | relative viability ([1]; first compound 2.53 µM) | relative viability ([1]; first compound 8 µM) | relative viability ([2]; first compound 0.08 µM) | relative viability ([2]; first compound 0.253 µM) | relative viability ([2]; first compound 0.8 µM) | relative viability ([2]; first compound 2.53 µM) | relative viability ([2]; first compound 8 µM) | relative viability ([3]; first compound 0.08 µM) | relative viability ([3]; first compound 0.253 µM) | relative viability ([3]; first compound 0.8 µM) | relative viability ([3]; first compound 2.53 µM) | relative viability ([3]; first compound 8 µM) | relative viability ([4]; first compound 0.08 µM) | relative viability ([4]; first compound 0.253 µM) | relative viability ([4]; first compound 0.8 µM) | relative viability ([4]; first compound 2.53 µM) | relative viability ([4]; first compound 8 µM)
LU99A | 0.586 | 0.524 | 0.536 | 0.531 | 0.539 | 0.187 | 0.164 | 0.246 | 0.163 | 0.176 | 0.264 | 0.299 | 0.277 | 0.24 | 0.227 | 0.628 | 0.607 | 0.514 | 0.429 | 0.38
LXF-289 | 0.675 | 0.654 | 0.723 | 0.664 | 0.648 | 0.897 | 0.94 | 0.933 | 0.978 | 0.759 | 0.246 | 0.196 | 0.205 | 0.193 | 0.119 | 0.192 | 0.191 | 0.216 | 0.135 | 0.0782
NCI-H23 | 0.511 | 0.353 | 0.368 | 0.411 | 0.482 | 0.7 | 0.539 | 0.569 | 0.639 | 0.65 | 0.323 | 0.559 | 0.263 | 0.192 | 0.179 | 0.536 | 0.679 | 0.8 | 0.597 | 0.517
NCI-H322M | 0.52 | 0.507 | 0.522 | 0.518 | 0.525 | 0.607 | 0.618 | 0.548 | 0.609 | 0.646 | 0.542 | 0.457 | 0.451 | 0.434 | 0.297 | 0.248 | 0.258 | 0.241 | 0.238 | 0.217
NCI-H358 | 0.151 | 0.139 | 0.14 | 0.128 | 0.139 | 0.18 | 0.183 | 0.174 | 0.172 | 0.181 | 0.12 | 0.105 | 0.0999 | 0.0895 | 0.0895 | 0.189 | 0.131 | 0.175 | 0.135 | 0.164
NCI-H441 | 0.512 | – | 0.409 | 0.469 | 0.489 | 0.247 | – | 0.246 | 0.247 | 0.283 | 0.78 | 0.399 | 0.666 | 0.564 | 0.511 | 0.507 | 0.432 | 0.698 | 0.396 | 0.672
NCI-H460 | 0.175 | 0.132 | 0.127 | 0.141 | 0.107 | 0.0652 | 0.0637 | 0.0589 | 0.0651 | 0.0689 | 0.492 | 0.343 | 0.0499 | 0.0583 | 0.0489 | 0.527 | 0.377 | 0.56 | 0.388 | 0.352
NCI-H520 | 0.702 | 0.554 | 0.768 | 0.692 | 0.74 | 0.743 | 0.619 | 0.827 | 0.709 | 0.666 | 0.493 | 0.457 | – | 0.435 | 0.858 | 0.239 | – | 0.183 | 0.159 | 0.163
NCI-H522 | 0.797 | 0.763 | 0.639 | 0.609 | 0.669 | 1.18 | 0.731 | 1.01 | 0.836 | 0.988 | 0.633 | 0.63 | 0.537 | 0.453 | 0.575 | 0.751 | 1.03 | 0.916 | 0.919 | 0.731
NCI-H596 | 0.746 | 0.82 | 0.744 | 0.779 | 0.896 | 0.475 | 0.489 | 0.394 | 0.525 | 0.502 | 0.916 | 0.82 | 0.798 | 0.954 | 0.774 | 0.581 | 0.654 | 0.585 | 0.575 | 0.496
NCI-H647 | 0.446 | 0.486 | 0.517 | 0.409 | 0.55 | 0.156 | 0.188 | 0.171 | 0.15 | 0.184 | 0.372 | 0.26 | 0.261 | 0.238 | 0.164 | 0.207 | 0.155 | 0.182 | 0.0851 | 0.106
NCI-H650 | 0.891 | 0.91 | 0.846 | 0.981 | 1.05 | 0.896 | 0.983 | 0.898 | 0.958 | 1.01 | 0.744 | 0.744 | 0.643 | 0.765 | 0.707 | – | 0.366 | 0.453 | 0.295 | 0.293
NCI-H661 | 0.549 | 0.611 | 0.649 | 0.558 | 0.622 | 0.915 | 0.854 | 0.887 | 0.876 | 0.941 | 0.351 | 0.354 | 0.336 | 0.343 | 0.336 | 0.964 | 0.872 | 1.03 | 0.695 | 0.498
NCI-H838 | 0.536 | 0.488 | 0.535 | 0.5 | 0.624 | 0.226 | 0.247 | 0.241 | 0.23 | 0.262 | 0.284 | 0.25 | 0.2 | 0.212 | 0.215 | 0.253 | 0.251 | 0.286 | 0.211 | 0.211
NCI-H1355 | 0.47 | 0.417 | 0.392 | 0.39 | 0.406 | 0.985 | 1.06 | 0.959 | 1.02 | 1.01 | 0.542 | 0.52 | 0.404 | 0.369 | 0.194 | 0.711 | 0.532 | 0.579 | 0.522 | 0.36
NCI-H1395 | 0.851 | 0.958 | 0.878 | 0.921 | 1.1 | 0.918 | 0.817 | 0.775 | 0.93 | 0.743 | 0.765 | 0.716 | 0.671 | 0.703 | 0.762 | 0.387 | 0.374 | 0.42 | 0.434 | 0.361
NCI-H1437 | 0.462 | 0.485 | 0.493 | 0.535 | 0.536 | 0.297 | 0.308 | 0.339 | 0.288 | 0.316 | 0.437 | 0.401 | 0.368 | 0.421 | 0.408 | 0.294 | 0.363 | 0.354 | 0.458 | 0.236
NCI-H1650 | 0.621 | 0.522 | 0.643 | 0.606 | 0.666 | 0.332 | 0.333 | 0.334 | 0.372 | 0.354 | 0.457 | 0.416 | 0.278 | 0.299 | 0.208 | – | 0.265 | 0.343 | 0.252 | 0.29
NCI-H1651 | 0.813 | 0.822 | 0.81 | 0.815 | 0.84 | 0.518 | 0.65 | 0.594 | 0.473 | 0.48 | 0.779 | 0.616 | 0.345 | 0.517 | 0.422 | 0.323 | 0.37 | 0.389 | 0.337 | 0.29
NCI-H1666 | 0.816 | 0.852 | 0.836 | 0.899 | 0.904 | 0.852 | 0.912 | 0.836 | 0.843 | 0.925 | 0.625 | 0.684 | 0.646 | 0.644 | 0.603 | 0.869 | 0.757 | 0.838 | 0.76 | 0.528
NCI-H1734 | 0.627 | 0.566 | 0.636 | 0.689 | 0.817 | 0.433 | 0.399 | 0.433 | 0.429 | 0.414 | 0.292 | 0.245 | 0.235 | 0.24 | 0.226 | 0.522 | 0.433 | 0.503 | 0.38 | 0.341
NCI-H1755 | 0.82 | 0.765 | 0.78 | 0.709 | 0.834 | 0.441 | 0.417 | 0.365 | 0.426 | 0.432 | 0.667 | 0.543 | 0.539 | 0.532 | 0.428 | 0.473 | 0.394 | 0.472 | 0.341 | 0.213
NCI-H1793 | – | 0.366 | 0.479 | 0.409 | 0.413 | – | 0.877 | 0.708 | 0.83 | 0.726 | 0.323 | 0.257 | 0.182 | 0.234 | 0.159 | 0.286 | 0.394 | 0.389 | 0.303 | 0.243
NCI-H1915 | 0.295 | 0.282 | 0.303 | 0.303 | 0.335 | 0.464 | 0.434 | 0.515 | 0.444 | 0.49 | 0.472 | 0.45 | 0.341 | 0.35 | 0.303 | 0.33 | 0.305 | 0.319 | 0.217 | 0.204
NCI-H1944 | 0.386 | 0.395 | 0.425 | – | 0.399 | 0.625 | 0.696 | 0.611 | – | 0.629 | 0.285 | 0.253 | 0.219 | 0.231 | 0.193 | 0.204 | 0.17 | 0.209 | 0.168 | 0.167
NCI-H1975 | 0.32 | 0.24 | 0.374 | 0.357 | 0.331 | 0.309 | 0.264 | 0.293 | 0.263 | 0.287 | 0.862 | 0.625 | – | 0.17 | 0.139 | 0.387 | 0.374 | 0.357 | 0.363 | 0.227
NCI-H1993 | 0.508 | 0.607 | 0.549 | 0.438 | 0.492 | 0.559 | 0.583 | 0.564 | 0.68 | 0.63 | 0.685 | 0.556 | 0.567 | 0.513 | 0.549 | 0.532 | 0.523 | 0.579 | 0.488 | 0.583
